Tests used:
Type in all cases: cell-based
[1] = tested on: hepatocellular carcinoma cell line Hep3B; assay: Growth inhibition of Hep3B cells, 48 hr treatment, Hoechst 33342 nucleus count (GE InCell 2200); conditions: Homo sapiens
How it was run: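 Compound exposure lasted 48 hr at 37° C, 5% CO2. Surviving nuclei were counted after Hoechst 33342 staining, and survival was expressed as the treated/non-treated cell number ratio, including the ratio at 10 μM compound.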

[2] = tested on: Hep3B hepatocellular carcinoma cell line; assay: MTS cell viability assay (NCI-60 methodology), GI50/LC50, Hep3B; conditions: Homo sapiens, 48 h, Hep3B cells, 2 days incubation with compound
How it was run: (§1)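 Cells were plated 24 h before treatment, and a time-zero plate was read by MTS. Five 2-fold dilutions plus DMSO were then added for 48 h, and viability was measured by MTS. GI50 is from [(Ti−Tz)/(C−Tz)]×100=50 and LC50 from [(Ti−Tz)/Tz]×100=−50.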

[3] = tested on: SW480 colon adenocarcinoma cell line; assay: MTS cell viability assay (NCI-60 methodology), GI50/LC50, SW480; conditions: Homo sapiens, 48 h, SW480 cells, 2 days incubation with compound
How it was run: as §1

[4] = tested on: NCI-H460 human lung cancer cell line; assay: MTS cell viability assay (NCI-60 methodology), GI50/LC50, NCI-H460; conditions: 48 h, NCI-H460 cells, 2 days incubation with compound
How it was run: as §1

[5] = Table 6, ratio of number of tumor cells treated with 10 μM compound to non-treated cells
[6] = Table 5, ratio of number of tumor cells treated with 10 μM compound to non-treated cells

SMILES	viability at 10 µM [1, 5] [%]	GI50 [2] [nM]	LC50 [2] [nM]	GI50 [3] [nM]	LC50 (NCI-60 lethal concentration, 50% net cell loss vs time zero) [3] [nM]	GI50 [4] [nM]	LC50 (concentration giving 50% net cell loss versus time zero, NCI-60 definition) [4] [nM]	viability at 10 µM [1, 6] [%]
CCC(C)(C)c1ccc(-c2nc(NC(=O)c3ccc([N+](=O)[O-])s3)sc2-c2ccc(F)cc2F)cc1 [Compound 6-47, N-(5-(2,4-difluorophenyl)-4-(4-(tert-pentyl)phenyl)thiazol-2-yl)-5-nitrothiophene-2-carboxamide]	33	590	660	640	1390	580	930	–
CC(C)(C)c1ccc(-c2nc(NC(=O)c3ccc([N+](=O)[O-])s3)sc2Oc2ccccc2C(F)(F)F)cc1 [Compound 5-75, N-(4-(4-(tert-butyl)phenyl)-5-(2-(trifluoromethyl)phenoxy)thiazol-2-yl)-5-nitrothiophene-2-carboxamide]	–	800	1310	730	1670	670	1110	34
CCCCc1ccc(-c2nc(NC(=O)c3ccc([N+](=O)[O-])s3)sc2Oc2ccccc2F)cc1 [Compound 5-80, N-(4-(4-butylphenyl)-5-(2-fluorophenoxy)thiazol-2-yl)-5-nitrothiophene-2-carboxamide]	–	680	1280	1460	4170	840	1750	26
CCCCCOc1ccc(-c2nc(NC(=O)c3ccc([N+](=O)[O-])s3)sc2Oc2ccccc2)cc1 [Compound 5-76, 5-nitro-N-(4-(4-(pentyloxy)phenyl)-5-phenoxythiazol-2-yl)thiophene-2-carboxamide]	–	560	1720	1270	5820	740	1520	38
CCOc1ccc(-c2nc(NC(=O)c3ccc([N+](=O)[O-])s3)sc2Oc2ccccc2)cc1 [Compound 5-6, N-(4-(4-ethoxyphenyl)-5-phenoxythiazol-2-yl)-5-nitrothiophene-2-carboxamide]	–	1100	4350	2590	5520	1170	3990	42
CCC(C)(C)c1ccc(-c2nc(NC(=O)c3ccc([N+](=O)[O-])s3)sc2-c2ccc(F)cc2)cc1 [Compound 6-40, N-(5-(4-fluorophenyl)-4-(4-(tert-pentyl)phenyl)thiazol-2-yl)-5-nitrothiophene-2-carboxamide]	25	540	3030	920	1350	1880	3610	–
CC(C)(C)c1ccc(-c2nc(NC(=O)c3ccc([N+](=O)[O-])s3)sc2-c2ccc(F)cc2)cc1 [Compound 6-24, N-(4-(4-(tert-butyl)phenyl)-5-(4-fluorophenyl)thiazol-2-yl)-5-nitrothiophene-2-carboxamide]	30	990	1930	1370	3570	1560	4220	–
Cc1ccc(-c2nc(NC(=O)c3ccc([N+](=O)[O-])s3)sc2-c2cc(C(F)(F)F)cc(C(F)(F)F)c2)cc1 [Compound 6-5, N-(5-(3,5-bis(trifluoromethyl)phenyl)-4-(p-tolyl)thiazol-2-yl)-5-nitrothiophene-2-carboxamide]	46	950	1080	1200	1410	1120	1630	–
